{
  "source": "patent US10214526B2",
  "about": "“Substituted pyrazolo[1,5-a]-pyridine-3-carboxamides and use thereof” (Bayer Pharma Aktiengesellschaft, priority 2015, dated 2019)",
  "note": "Where a name gives a salt, the structure may show the parent alone.",
  "data": [
    {"system": "recombinant guanylate cyclase reporter cell line", "experiment": "Effect on a recombinant guanylate cyclase reporter cell line", "assay_type": "cell-based", "details": "in some cases mean values from individual determinations", "experimental": "B-2. Effect on a Recombinant Guanylate Cyclase Reporter Cell Line\nThe cellular activity of the compounds according to the invention is determined using a recombinant guanylate cyclase reporter cell line, as described in F. Wunder et al., Anal. Biochem. 339, 104-112 (2005).\nRepresentative MEC values (MEC=minimum effective concentration) for the compounds of the invention are shown in the table below (in some cases as mean values from individual determinations): […]", "units": {"MEC (minimum effective concentration)": "µM"}, "values": [
      {"compound": "Cc1cc(OCc2c(F)cccc2F)n2nc(C)c(C(=O)NC(C)(CO)c3nnn(C(F)F)n3)c2c1", "note": "(racemic) [Example 2, rac-7-[(2,6-Difluorobenzyl)oxy]-N-{2-[2-(difluoromethyl)-2H-tetrazol-5-yl]-1-hydroxypropan-2-yl}-2,5-dimethylpyrazolo[1,5-a]pyridine-3-carboxamide]", "MEC (minimum effective concentration)": 0.10},
      {"compound": "[2H]C([2H])([2H])CC(C)(N)CNC(=O)c1c(C)nn2c(OCc3c(F)cccc3F)cc(C)cc12", "note": "(single isomer, unassigned; enantiomer a) [Example 3, ent-N-[2-Amino-2-methyl(4,4,4,4-^2H3)butyl]-7-[(2,6-difluorobenzyl)oxy]-2,5-dimethylpyrazolo[1,5-a]pyridine-3-carboxamide (Enantiomer A)]", "MEC (minimum effective concentration)": 0.30},
      {"compound": "Cc1cc(OCc2c(F)cccc2F)n2nc(C)c(C(=O)NCC(C)(N)CC[Si](C)(C)C)c2c1", "note": "(single isomer, unassigned; enantiomer a) [Example 4, ent-N-[2-Amino-2-methyl-4-(trimethylsilyl)butyl]-7-[(2,6-difluorobenzyl)oxy]-2,5-dimethylpyrazolo[1,5-a]pyridine-3-carboxamide (Enantiomer A)]", "MEC (minimum effective concentration)": 0.53},
      {"compound": "Cc1cc(OCc2c(F)cccc2F)n2nc(C)c(C(=O)NCC(C)(N)CC[Si](C)(C)C)c2c1", "note": "(single isomer, unassigned; enantiomer b) [Example 5, ent-N-[2-Amino-2-methyl-4-(trimethylsilyl)butyl]-7-[(2,6-difluorobenzyl)oxy]-2,5-dimethylpyrazolo[1,5-a]pyridine-3-carboxamide (Enantiomer B)]", "MEC (minimum effective concentration)": 0.30},
      {"compound": "Cc1cc(OCc2c(F)cccc2F)n2nc(C)c(C(=O)N[C@@](C)(CO)c3nnc(C)s3)c2c1", "note": "[Example 1, 7-[(2,6-Difluorobenzyl)oxy]-N-[(2S)-1-hydroxy-2-(5-methyl-1,3,4-thiadiazol-2-yl)propan-2-yl]-2,5-dimethylpyrazolo[1,5-a]pyridine-3-carboxamide trifluoroacetate]", "MEC (minimum effective concentration)": 0.20}
    ]}
  ]
}
